Assay results from patent publication US20030215462A1, “Use of UGT inhibitors to increase bioavailability” (priority 2001, published 2003).

Tests used:
UGT1A9 = biological target: T1, UGT1A9 (Homo sapiens, UniProt O60656); assay: Inhibition of raloxifene glucuronidation by recombinant UGT1A9 Supersomes; details: for activity at 15 min, 25 µM / activity at 15 min, 50 µM: human, Supersomes with recombinant human UGT1A9, pH 7.5, probe raloxifene 50 μM; for Inhibition of raloxifene glucuronidation, UGT1A9, second line per inhibitor (G2): second line (G2, metabolite not given), raloxifene 50 μM, 250 μg/ml Supersomes, 1 mM UDPGA, 15 min
T1 sequence (O60656 26-530): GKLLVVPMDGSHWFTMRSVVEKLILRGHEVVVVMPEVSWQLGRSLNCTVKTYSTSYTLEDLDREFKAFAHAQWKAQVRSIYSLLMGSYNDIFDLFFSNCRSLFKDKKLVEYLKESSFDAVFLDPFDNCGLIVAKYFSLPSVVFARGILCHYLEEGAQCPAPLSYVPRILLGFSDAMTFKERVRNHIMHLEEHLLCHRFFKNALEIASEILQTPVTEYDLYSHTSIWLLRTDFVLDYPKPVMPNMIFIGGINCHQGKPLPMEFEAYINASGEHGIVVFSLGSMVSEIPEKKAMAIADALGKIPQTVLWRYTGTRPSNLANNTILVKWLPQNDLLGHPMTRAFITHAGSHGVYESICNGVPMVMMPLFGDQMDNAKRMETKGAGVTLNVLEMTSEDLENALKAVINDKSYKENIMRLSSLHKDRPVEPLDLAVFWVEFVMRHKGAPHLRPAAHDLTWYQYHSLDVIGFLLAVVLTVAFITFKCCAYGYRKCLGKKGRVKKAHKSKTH

[1] = system: T2, UGT enzymes of human liver microsomes; assay: Kinetic and Ki studies of inhibitors of 7-HFC glucuronidation in human liver microsomes; format: biochemical; details: 7-HFC 20-500 μM; for Km: read-out: Km of 7-HFC glucuronidation (fit of the experiment with this inhibitor)
T2 construct: percentage of control metabolism, 7-HFC glucuronidation; percentage of control metabolism, 7-HFC glucuronidation

UGT1A3 = biological target: T3, UGT1A3 (Homo sapiens, UniProt P35503); assay: Inhibition of raloxifene glucuronidation by recombinant UGT1A3 Supersomes; details: for activity at 15 min, 25 µM / activity at 15 min, 50 µM / activity at 15 min, 10 µM: human; for activity at 15 min, 25 µM: inhibitor 25 μM; for activity at 15 min, 50 µM: inhibitor 50 μM; for activity at 15 min, 10 µM: inhibitor 10 μM
T3 sequence (P35503 29-534): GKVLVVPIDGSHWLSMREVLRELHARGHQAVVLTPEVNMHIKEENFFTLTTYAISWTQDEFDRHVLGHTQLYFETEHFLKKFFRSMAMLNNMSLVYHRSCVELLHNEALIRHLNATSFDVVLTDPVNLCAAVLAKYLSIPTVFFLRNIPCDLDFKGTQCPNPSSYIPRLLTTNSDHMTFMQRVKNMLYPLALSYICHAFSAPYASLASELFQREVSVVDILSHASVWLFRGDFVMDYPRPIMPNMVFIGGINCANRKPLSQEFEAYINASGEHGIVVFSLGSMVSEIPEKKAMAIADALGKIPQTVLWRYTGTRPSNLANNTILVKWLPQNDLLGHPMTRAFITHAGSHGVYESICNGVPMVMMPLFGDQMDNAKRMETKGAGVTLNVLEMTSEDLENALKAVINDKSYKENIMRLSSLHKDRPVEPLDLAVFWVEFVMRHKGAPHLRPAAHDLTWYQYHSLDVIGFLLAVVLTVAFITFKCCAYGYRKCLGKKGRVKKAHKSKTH
Method: (§1) Compounds were eluted using a binary solvent gradient system. Solvent A was water brought to pH 8 with NH4OH. Solvent B was methanol. Solvent flow rate was 1 ml/min and the column temperature was maintained at 50° C. Detection was at 280 nm. […] The system was then returned to the initial conditions and equilibrated for 3 min.

[2] = system: UGT enzymes of pooled human jejunum microsomes; assay: Inhibition of estradiol (E2) glucuronidation in pooled human jejunum microsomes; format: biochemical; details: jejunum HJ61, E2 50 μM
Source text: Compounds were eluted using a binary solvent gradient system where solvent A was dilute phosphoric acid (pH 3) and solvent B was 80:20 acetonitrile-methanol. […] Detection was at 280 nm.

UGT1A1 = biological target: T4, UGT1A1 (Homo sapiens, UniProt P22309); assay: Inhibition of raloxifene glucuronidation by recombinant UGT1A1 Supersomes; details: for activity at 15 min / activity at 15 min, 25 µM / activity at 15 min, 50 µM / activity at 15 min, 10 µM: human; for activity at 15 min, 25 µM: inhibitor 25 μM; for activity at 15 min, 50 µM: inhibitor 50 μM; for activity at 15 min, 10 µM: inhibitor 10 μM
T4 sequence (P22309 26-533): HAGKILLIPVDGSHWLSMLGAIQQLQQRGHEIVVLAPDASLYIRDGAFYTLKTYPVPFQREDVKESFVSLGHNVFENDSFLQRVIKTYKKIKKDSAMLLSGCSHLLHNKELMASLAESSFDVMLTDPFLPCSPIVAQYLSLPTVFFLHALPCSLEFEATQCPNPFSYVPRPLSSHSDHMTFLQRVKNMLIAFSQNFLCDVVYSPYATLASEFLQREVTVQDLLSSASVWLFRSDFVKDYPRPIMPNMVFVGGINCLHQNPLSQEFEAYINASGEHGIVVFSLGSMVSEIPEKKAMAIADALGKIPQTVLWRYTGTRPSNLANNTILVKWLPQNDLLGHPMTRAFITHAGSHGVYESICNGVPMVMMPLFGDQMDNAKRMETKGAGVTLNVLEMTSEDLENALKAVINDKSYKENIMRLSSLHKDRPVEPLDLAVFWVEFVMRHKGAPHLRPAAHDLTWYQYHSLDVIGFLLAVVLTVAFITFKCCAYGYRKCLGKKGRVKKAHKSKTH
Method: as §1

[3] = formation of glucuronide G1, % of control metabolism, raloxifene G1, UGT1A9, inhibitor 50 μM
[4] = formation of glucuronide G2, % of control metabolism, raloxifene G2, UGT1A9, inhibitor 50 μM
[5] = Supersomes with recombinant human UGT1A3, pH 7.5, probe raloxifene 50 μM, formation of glucuronide G1, % of control metabolism, raloxifene G1, UGT1A3
[6] = Supersomes with recombinant human UGT1A3, pH 7.5, probe raloxifene 50 μM, formation of glucuronide G2, % of control metabolism, raloxifene G2, UGT1A3
[7] = recombinant UGT1A3 Supersomes, pH 7.5, probe raloxifene 50 μM (formation of glucuronide G1), Inhibition of raloxifene glucuronidation, G1, UGT1A3, G1, raloxifene 50 μM, 250 μg/ml Supersomes, 1 mM UDPGA, 15 min
[8] = recombinant UGT1A3 Supersomes, pH 7.5, probe raloxifene 50 μM (formation of glucuronide G2), Inhibition of raloxifene glucuronidation, G2, UGT1A3, G2, raloxifene 50 μM, 250 μg/ml Supersomes, 1 mM UDPGA, 15 min
[9] = Supersomes with recombinant human UGT1A1, pH 7.5, probe raloxifene 50 μM, formation of glucuronide G1
[10] = Supersomes with recombinant human UGT1A1, pH 7.5, probe raloxifene 50 μM, formation of glucuronide G1, % of control metabolism, raloxifene G1, UGT1A1
[11] = Supersomes with recombinant human UGT1A1, pH 7.5, probe raloxifene 50 μM, formation of glucuronide G1, Inhibition of raloxifene glucuronidation, G1, UGT1A1, G1, raloxifene 50 μM, 250 μg/ml Supersomes, 1 mM UDPGA, 15 min
[12] = Supersomes with recombinant human UGT1A1, pH 7.5, probe raloxifene 50 μM, formation of glucuronide G2, % of control metabolism, raloxifene G2, UGT1A1
[13] = recombinant UGT1A1 Supersomes, pH 7.5, probe raloxifene 50 μM (formation of glucuronide G2)
[14] = recombinant UGT1A1 Supersomes, pH 7.5, probe raloxifene 50 μM (formation of glucuronide G2), Inhibition of raloxifene glucuronidation, G2, UGT1A1, G2, raloxifene 50 μM, 250 μg/ml Supersomes, 1 mM UDPGA, 15 min

Vmax of 7-HFC glucuronidation (fit of the experiment with this inhibitor) [1] [nmol/min/mg]	Km [1] [µM]	Compound	activity at 15 min, 50 µM (UGT1A9; [3]) [%]	activity at 15 min, 50 µM (UGT1A9; [4]) [%]	Inhibition of raloxifene glucuronidation, UGT1A9, second line per inhibitor (G2) (UGT1A9; inhibitor 50 μM)	activity at 15 min, 25 µM (UGT1A3; [5]) [%]	activity at 15 min, 50 µM (UGT1A3; [5]) [%]	activity at 15 min, 25 µM (UGT1A3; [6]) [%]	activity at 15 min, 50 µM (UGT1A3; [6]) [%]	activity at 15 min, 25 µM (UGT1A3; [7]) [%]	activity at 15 min, 50 µM (UGT1A3; [7]) [%]	activity at 15 min, 25 µM (UGT1A3; [8]) [%]	activity at 15 min, 50 µM (UGT1A3; [8]) [%]	activity at 15 min (UGT1A1; [9]) [%]	activity at 15 min, 25 µM (UGT1A1; [10]) [%]	activity at 15 min, 50 µM (UGT1A1; [10]) [%]	activity at 15 min, 25 µM (UGT1A1; [11]) [%]	activity at 15 min, 50 µM (UGT1A1; [11]) [%]	activity at 15 min, 25 µM (UGT1A1; [12]) [%]	activity at 15 min, 50 µM (UGT1A1; [12]) [%]	also measured
57 ± 3	81 ± 7	CCCCCCCCOC(=O)c1cc(O)c(O)c(O)c1 [Octyl gallate]	84	70	70 (4)	28	12	31	13	28	12	31	13	65	37	18	37	18	51	31	inhibition of raloxifene glucuronidation, in words (UGT1A9; UGT1A9): very poor inhibitor; inhibition of raloxifene glucuronidation, in words (UGT1A3; UGT1A3): excellent inhibitor; activity at 15 min, 10 µM (UGT1A3; [5]): 61%; activity at 15 min, 10 µM (UGT1A3; [6]): 60%; activity at 15 min, 10 µM (UGT1A3; [7]): 61%; activity at 15 min, 10 µM (UGT1A3; [8]): 60%; inhibition of raloxifene glucuronidation, in words (UGT1A1; UGT1A1): excellent inhibitor; activity at 15 min, 10 µM (UGT1A1; [10]): 65%; activity at 15 min, 10 µM (UGT1A1; [12]): 75%; activity at 15 min (UGT1A1; [13]): 75%; activity at 15 min, 25 µM (UGT1A1; [14]): 51%; activity at 15 min, 50 µM (UGT1A1; [14]): 31%
62 ± 4	92 ± 9	O=C(O)c1cc(-c2ccc(F)cc2F)ccc1O [Diflunisal, reference compound]																			residual metabolism (% of control), E2-3-β-D-glucuronide ([2]; inhibitor 100 μM): 62 (3), obs %

Compound	Vmax of 7-HFC glucuronidation (fit of the experiment with this inhibitor) [1] [nmol/min/mg]	Km [1] [µM]	activity at 15 min, 50 µM (UGT1A9; [3]) [%]	activity at 15 min, 50 µM (UGT1A9; [4]) [%]	Inhibition of raloxifene glucuronidation, UGT1A9, second line per inhibitor (G2) (UGT1A9; inhibitor 50 μM)	activity at 15 min, 25 µM (UGT1A3; [5]) [%]	activity at 15 min, 50 µM (UGT1A3; [5]) [%]	activity at 15 min, 25 µM (UGT1A3; [6]) [%]	activity at 15 min, 50 µM (UGT1A3; [6]) [%]	activity at 15 min, 25 µM (UGT1A3; [7]) [%]	activity at 15 min, 50 µM (UGT1A3; [7]) [%]	activity at 15 min, 25 µM (UGT1A3; [8]) [%]	activity at 15 min, 50 µM (UGT1A3; [8]) [%]	activity at 15 min (UGT1A1; [9]) [%]	activity at 15 min, 25 µM (UGT1A1; [10]) [%]	activity at 15 min, 50 µM (UGT1A1; [10]) [%]	activity at 15 min, 25 µM (UGT1A1; [11]) [%]	activity at 15 min, 50 µM (UGT1A1; [11]) [%]	activity at 15 min, 25 µM (UGT1A1; [12]) [%]	activity at 15 min, 50 µM (UGT1A1; [12]) [%]	also measured
O=C(O[C@@H]1Cc2c(O)cc(O)cc2O[C@H]1c1cc(O)c(O)c(O)c1)c1cc(O)c(O)c(O)c1 [Gallocatechin gallate]	54 ± 3	75 ± 7	47	44	44 (2)	65	39	70	38	64	39	70	38	79	52	30	52	30	54	32	activity at 15 min, 25 µM (UGT1A9; formation of glucuronide G1, % of control metabolism, raloxifene G1, UGT1A9, inhibitor 25 μM): 72%; activity at 15 min, 25 µM (UGT1A9; formation of glucuronide G2, % of control metabolism, raloxifene G2, UGT1A9, inhibitor 25 μM): 63%; Inhibition of raloxifene glucuronidation, UGT1A9, second line per inhibitor (G2) (UGT1A9; inhibitor 25 μM): 63 (4); residual metabolism (% of control), E2-3-β-D-glucuronide ([2]; inhibitor 50 μM): 25 (1) %; residual metabolism (% of control), E2-17-β-D-glucuronide ([2]; inhibitor 50 μM): 39 (1) %; activity at 15 min (UGT1A1; [13]): 76%; activity at 15 min, 25 µM (UGT1A1; [14]): 54%; activity at 15 min, 50 µM (UGT1A1; [14]): 32%
